Patent US10226514B2, “Methods and compositions for reducing blood glucose levels” (The Children's Medical Center Corporation, priority 2011, dated 2019)
Substitutions are numbered along the chain they refer to. Names and notes keep the numbering of the source.

How the values were obtained:
[1] = test system: XBP1s; assay: XBP1s protein levels in Ad-XBP1s-infected MEFs (western blot); format: cell-based, mouse
Description: (§1) MEF cells were from American Type Tissue Collection (ATCC). These cells were grown in Dulbecco's Modified Eagel Medium (DMEM) supplemented with 10% fetal bovine serum (FBS), 10 U/ml penicillin and 1 μg/ml streptomycin at 37° C. and 5% CO2. Fao cells were maintained in RPMI 1640 medium (Invitrogen) supplemented with 10% fetal bovine serum (FBS), 10 U/ml penicillin and 1 μg/ml streptomycin.
(§2) Adenovirus expressing XBP1s T48A, XBP1s S61A, XBP1s T48A/S61A and MKK6Glu were produced with ViraPower Adenoviral Expression System (Invitrogen) according to manufacturer's instruction. Briefly, pAD-XBP1s T48A, pAD-XBP1s S61A, pAd-XBP1s T48A/S61A and pAd-MKK6Glu were linearized by restriction endonuclease digestion with PacI and transfected to 293A cells by Lipofectamine. The media was changed with fresh media every other day until the cytopathic effect was observed. When cytopathic effect reached to 80%, cells were collected by centrifugation. The pellet was resuspended in PBS and subjected to freezing and thawing cycles at −80° C. and 37° C. for 4 times. The supernatant containing the virus was prepared by centrifugation at 4,000 rpm for 20 min at room temperature. Ad-XBP s and Ad-Cre were generated as described previously (Ozcan, L., et al. (2009) Cell metabolism 9:35-51). For infection, cells were incubated with adenovirus in reduced volume of medium containing 1% FBS and antibiotics. Cells were gently rocked every 15 min for 1 h to increase efficiency of infection, and then fresh medium were added and cells were incubated for additional 15 h or 23 h.
Cells were lysed in lysis buffer (25 mM Tris-HCl, pH 7.4; 10 mM NaF; 10 mM Na4P207; 2 mM Na3VO4; 1 mM EGTA; 1 mM EDTA; 1% NP-40; 10 μg/ml Leupeptin; 10 μg/ml Aprotinin; 1 mM PMSF and 20 nM Okadaic acid). After 20 min-rotation at 4° C., cell lysates were centrifuged at 13,200 rpm for 20 min at 4° C. Supernatants were collected and protein concentration was quantified by using Protein Assay Kit (Bio-Rad). The concentrations of protein were normalized with lysis buffer to have equivalent amounts of protein and volume. Protein was denatured by boiling at 100° C. for 5 min in Laemmli buffer. The lysates were cooled to room temperature before loading for western blot analysis.
Western blot analysis was performed as previously described (Ozcan, L., et al. (2009) Cell metabolism 9:35-51). Samples from cell lysates or tissue lysates were resolved by SDS-PAGE and then transferred to polyvinylidene fluoride (PVDF) membrane. After 1 h blocking at room temperature using 10% blocking reagent (Roche), membrane was incubated overnight with primary antibody in Tris-buffered saline solution/Tween (TBST) containing 10% blocking reagent at 4° C. After the incubation, membrane was washed three times in TBST and incubated with secondary antibody for 1 h at room temperature. After three-time washing in TBST, membrane was developed using a chemiluminescence assay system (Roche) and exposed to Kodak films. Relative protein levels were quantified by Image J program.

[2] = test system: XBP1s; assay: XBP1s levels in Ad-XBP1s-infected Fao cells; format: cell-based; details: Ad-XBP1s-infected Fao cells (rat hepatoma)
Description: as §1
as §2, with “Ad-XBP s and Ad-Cre were generated as described previously (Ozcan, L., et al. (2009) Cell metabolism 9:35-51). For infection, cells were incubated with adenovirus in reduced volume of medium containing 1% FBS and antibiotics. Cells were gently rocked every 15 min for 1 h to increase efficiency of infection, and then fresh medium were added and cells were incubated for additional 15 h or 23 h.” left out
Western blot analysis was performed as previously described (Ozcan, L., et al. (2009) Cell metabolism 9:35-51). […] Relative protein levels were quantified by Image J program.

[3] = test system: p38 MAPK; assay: Fasting/re-feeding of lean mice treated with p38 MAPK inhibitor; format: in vivo, mouse; details: 2 mg/kg/day intraperitoneally three days
Description: For liver tissue, a kit from Thermo Scientific (Rockford, Ill.) was used according to the manufacturer's instruction. Liver tissues were cut into small pieces, washed with PBS, and separated from PBS by centrifugation at 500×g for 5 minutes. Collected tissues were resuspended by company-supplied CER I buffer and homogenized with a Dounce homogenizer. Homogenized tissues were vortexed and incubated on ice for 10 minutes. Following CER II buffer addition, tissues were vortexed for 5 seconds, incubated for 1 minute on ice, vortexed again, and then centrifuged for 5 minutes at maximum speed in a microcentrifuge. The supernatant (cytoplasmic fraction) was saved for later analysis. The pellets were resuspended with supplied NER buffer and undergone a series of multiple vortexing (15 seconds) and incubation on ice (10 minutes) for a total of 40 minutes. After 10-minute centrifugation, the supernatant (nuclear fraction) was collected and analyzed with immunoblotting.
Tissues were homogenized with a bench-top homogenizer (Polytron, PT2100) in ice-cold tissue lysis buffer (25 mM Tris-HCl, pH 7.4; 100 mM NaF; 50 mM Na4P207; 10 mM Na3VO4; 10 mM EGTA; 10 mM EDTA; 1% NP-40; 10 μg/ml Leupeptin; 10 μg/ml Aprotinin; 2 mM PMSF and 20 nM Okadaic acid). After homogenization, lysates were rotated for 1 h at 4° C. and then subjected to centrifugation at 13,200 rpm for 20 min at 4° C. The lipid layer was removed and the supernatant was transferred into Eppendorf tubes for centrifugation. This process was repeated for 2 times to get rid of lipid completely. Protein concentration was quantified by using Protein Assay Kit (Bio-Rad). Equivalent protein concentration in each sample was prepared and boiled at 100° C. for 5 min in Laemmli buffer. The lysates were cooled to room temperature before loading for western blot analysis.

[4] = test system: XBP1s; assay: Co-expression of kinase constructs with XBP1s in transfected cells; format: cell-based; details: p38 MAPK inhibitor 10 μM
Excerpt: To unravel the molecular mechanisms underlying the above observations, several different approaches were taken to explore whether activation of JNK, which is one of the most dominant signaling elements in SAPK signaling, affects XBP1s levels and nuclear translocation. […] It is known that MAPK kinase kinase (MKK) 4 and 7 are upstream kinases responsible for JNK activation (Tournier, C., et al. (2001) Genes Dev 15:1419-1426; Brancho, D., et al. (2003) Genes Dev 17:1969-1978) and anisomycin or TNFα cannot activate JNK in MKK4 and 7 double knock out cells (MKK4,7^−/−) (Tournier, C., et al. (2001) Genes Dev 15:1419-1426; Schaeffer, H. J. & Weber, M. J. (1999) Mol Cell Biol 19:2435-2444). In order to determine whether XBP1s can be regulated by anisomycin treatment in MKK4,7^−/− cells, these cells, along with their controls, were treated with anisomycin after XBP is expression. […] Furthermore, the experiments were repeated in JNK1,2^−/− and MKK4,7^−/− cells with TNFα. […] Finally, an MKK7-JNK1 fusion protein, previously shown to be a specific activator of JNK (Lei, K., et al. (2002) Mol Cell Biol 22:4929-4942), was used to investigate whether activation of JNK alone can have effect on XBP1s.
A constitutively active form of MKK6 (MKK6Glu), one of the upstream kinases of p38 MAPK, was previously generated by mutation of Ser207 and […] to glutamate. […]

[5] = test system: XBP1s; assay: FBS-induced XBP1s nuclear translocation in starved cells; format: cell-based, mouse; details: 16 h starved cells, inhibitor 10 μM before 10% FBS
Description: XBP1s is generated in the liver when an animal is refed after a fasting period (Park, S. W., et al. (2010) Nature Med 16:429-437), likely mainly due to increased metabolic overloading. To create a metabolic overloading model in cells, following a 16 h starvation in medium without fetal bovine serum (FBS), cells were reincubated for 15, 30 and 60 minutes with medium containing 10% FBS, following which total and nuclear proteins or mRNA were isolated and used to analyze various parameters, including p38 MAPK activation, XBP1s nuclear migration, and splicing. When the cells were starved, then stimulated with medium containing 10% FBS, there was a robust increase in XBP1s splicing and nuclear translocation, as well as in activation of p38 MAPK (FIG. 10A). […] The same experiment was then repeated in p38α^−/− and MKK3,6^−/− cells. […] Moreover, FBS-induced XBP i s nuclear translocation was severely impaired in the MKK3,6^−/− cells (FIG. 10C).

[6] = test system: XBP1s; assay: Cytoplasmic and nuclear XBP1s protein in cells; format: cell-based, mouse; details: mutant XBP1s expressed in cells, anisomycin 25 ng/ml, vs WT
Description: Cytoplasmic and nuclear protein fractions were extracted from cells by using nuclear protein extraction kit from Active Motif (Carlsbad, Calif.). Cells were maintained in 10 cm tissue culture dishes for nuclear/cytoplasmic extraction. After removal of the media, cells were washed with ice-cold phosphate buffered saline (PBS) containing phosphatase inhibitors. Subsequently, 3 ml of ice-cold PBS with phosphatase inhibitors was added and then cells were scrapped out of the dish. Collected cells were separated from PBS by centrifugation for 5 minutes at 500 rpm and resuspended with 500 μl of 1× hypotonic buffer. After 15-minute incubation in hypotonic buffer on ice, 25 μl of supplied detergent was added and cells were vortexed 10 seconds. Cells were centrifuged for 30 seconds at 14,000×g and supernatant (cytoplasmic fraction) was saved for further analysis. Remaining pellet, which contains nuclei, were resuspended with 50 μl of provided complete lysis buffer with 1 mM dithiothreitol (DTT), vortexed 10 seconds, and incubated for 30 minutes on ice. After 30-second vortexing and 10-minute centrifugation at 14,000×g, the supernatant was collected and analyzed as nuclear fraction.

`CCOc1nc(NC(=O)Cc2cc(OC)ccc2OC)cc(N)c1C#N` [JNK inhibitor VIII] was tested, and the “effect on anisomycin-mediated upregulation of XBP1s protein levels” value ([1]; JNK inhibitor 10 μM 30 minutes, then anisomycin 25 ng/ml two hours) was “no effect”.

In the case of TNFα, the XBP1s protein levels ([1]; Ad-XBP1s-infected MEFs, increasing doses, two hours) is reported as “markedly increased XBP1s protein levels”, the XBP1s protein levels ([1]; JNK1,2−/− cells) is reported as “significant increase in XBP1s levels” and the XBP1s levels ([1]; MKK4,7−/− cells) is reported as “significant increase in XBP1s levels”. The XBP1s levels [2] was “dramatically upregulating their XBP1s levels”.

In the case of `C[S+]([O-])c1ccc(-c2nc(-c3ccncc3)c(-c3ccc(F)cc3)[nH]2)cc1` (stereo not drawn) [SB203580], the “anisomycin-induced increase in XBP1s levels” value ([1]; SB203580 10 μM 30 minutes, then anisomycin 25 ng/ml two hours) is reported as “completely abolished”, the “GRP78 expression increase in liver after re-feeding” value [3] is reported as “but not in the inhibitor-treated group” and the “XBP1s mRNA levels in the liver of re-fed mice” value [3] is reported as “significantly increased”. For the same molecule, the ATF2 phosphorylation ([3]; lean C57BL6 mice) was “dramatic reduction in phosphorylation”, the “XBP1s nuclear translocation in the liver after re-feeding” value ([3]; lean C57BL6 mice, starved 24 hours, refed one hour) was “completely absent” and the “effect of MKK6Glu on XBP1s” value [4] was “blocked the effect of MKK6Glu on XBP1s”. For the same molecule, the “FBS-induced XBP1s nuclear translocation” value [5] was “completely eliminated XBP1s nuclear translocation” and the XBP1s splicing [5] was “without altering XBP1s splicing”.

B1: T48A: mutant XBP1s with Thr48 residue mutated to alanine (protein)
chain: MVVVAAAPSAATAAPKVLLLSGQPASGGRALPLMVPGPRAAGSEASGAPQARKRQRLTHLSPEEKALRRKLKNRVAAQTARDRKKARMSELEQQVVDLEEENHKLQLENQLLREKTHGLVVENQELRTRLGMDTLDPDEVPEVEAKGSGVRLVAGSAESAAGAGPVVTSPEHLPMDSDTVASSDSESDILLGILDKLDPVMFFKCPSPESASLEELPEVYPEGPSSLPASLSLSVGTSSAKLEAINELIRFDHVYTKPLVLEIPSETESQTNVVVKIEEAPLSSSEEDHPEFIVSVKKEPLEDDFIPELGISNLLSSSHCLRPPSCLLDAHSDCGYEGSPSPFSDMSSPLGTDHSWEDTFANELFPQLISV
For B1, the “decrease of XBP1s nuclear translocation” value [6] was “about 49%”.

B2: S61A: amino acid substitution mutant XBP1s at Ser61 (protein)
chain: B1 chain with A48T, S61A
In the case of B2, the “decrease of XBP1s nuclear translocation” value [6] is reported as “about 79%”.
